From patent publication US20120321584A1, “PROCESSES FOR PREPARING AMINE SALTS OF KMUP-3 AND USE THEREOF” (KAOHSIUNG MEDICAL UNIVERSITY, priority 2011, published 2012)

Legend:
[1] = tested on: electrically-stimulated left atria; experiment: Electrically-stimulated beating left atrium, organ bath; format: cell-based, guinea-pig; details: propranolol and Y27632 1 μM, C3 exoenzyme 50 μg/mL, ketanserin 1.0 μM, L-NAME 100 μM
Experimental: (§1) Organ bath experiments and tissue procurement. Guinea-pigs were killed by a blow on the head. Their hearts were quickly excised and trimmed of excess tissues. The atrium was carefully removed and placed at room temperature (20˜25° C.) in a Krebs solution of the following composition (mM): NaCl 113, KCl 4.8, CaCl2 2.2, KH2PO4 1.2, MgCl2 1.2, NaHCO3 25, dextrose 11.0; bubbled with a 95% O2+5% CO2 mixture, followed by separation of right and left atrium for subsequent experiments.
Quiescent left atria free of connective tissues were dissected and mounted in an organ bath under a resting tension of 0.5 g. Organs were bathed at 32.5° C. in aerated Krebs solution and electrically stimulated with 1 Hz at […] via two platinum electrodes placed at either side. The positive inotropic effect was measured by determining the cumulative concentration-response curves in the presence of KMUP-3 or KMUP-3 amine salt (0.1, 1.0, 10, 100 μM). To examine the possible involvement of NO and cAMP/cGMP in the action of KMUP-3 or KMUP-3 amine salt on electrically-stimulated beating atria, pre-incubated with a ROCK inhibitor Y27632 (1.0 μM), a β-adrenoceptor blocker propranolol (1.0 μM), eNOS inhibitors L-NAME (100 μM), 7-nitroindazole (100 μM) and 5-HT inhibitor ketanserin (1.0 μM) was performed for 15 min prior to the addition of KMUP-3 or KMUP-3 amine salt to measure the development of beating force and heart rate for 10 min.

L-type Ca2+ channels = experiment: Ca2+ entry currents in H9c2 cells, whole cell patch-clamp; format: cell-based, rat; details: KMUP-3 10 μM with KT5823 3 μM or Y27642 50 μM
Source text: To measure the ICa through L-type Ca^2+ channels, whole cell patch-clamp electrophysiology was used in rat heart-derived H9c2 cells as previously described. In brief, H9c2 cells were placed in a recording dish and perfused with a bath solution containing (in mM): 135 tetraethylammonium (TEA)-Cl, 1.8 CaCl2, 2 MgCl2, 10 glucose, and 10 HEPES (pH 7.4, Tris). […] Negative pressure was briefly applied to rupture the membrane and a gigaohm seal was obtained.
H9c2 cells were clamped at −80 mV with step depolarizations (300 ms) from −80 to 0 mV to evoke whole-cell ICa. Voltage clamped cells were equilibrated for 15 min prior to experimentation. Membrane currents were recorded on an Axopatch 700A amplifier (Axon Instruments, Union City, Calif.), filtered at 1 kHz using a low-pass Bessel filter, digitized at 5 kHz and stored on a computer for subsequent analysis with Clampfit 9.0. Following equilibration, ICa was monitored in the presence and absence of KMUP-3 or KMUP-3 amine salt (1, 10, 100 μM). To ascertain whether PKG or ROCK signaling was involved in the KMUP-3-induced decreases in ICa, H9c2 cells were incubated for 15 min with the combination of KMUP-3 or KMUP-3 amine salt (10 μM) and PKG antagonist KT5823 (3 μM) or ROCK inhibitor Y-27632 (50 μM). All electrical recordings were performed at room temperature.

PKCα = PKCα translocation of beating left atrium; format: cell-based, guinea-pig; details: Y27632 1-10 μM
Experimental: To determine the effect of KMUP-3 or KMUP-3 amine salt on PKCa translocation, isolated left beating atrium was incubated with KMUP-3 or KMUP-3 amine salt for 30 minutes (0.1-10 μM). In brief, frozen left atrium was pulverized to a fine powder at the temperature of liquid nitrogen for preparation of cytosolic and membrane fractions. Isolated left atrium tissues were then homogenized by a sonicator (XL-2020, Heat Systems Ultrasonic, Plainview, N.Y., USA) at 4 in 1 ml of homogenization buffer containing 20 mM Tris-HCl (pH 7.5), 1 mM dithiothreitol (DTT), 5 mM EGTA, 2 mM EDTA, 0.5 mM PMSF, 20 μM leupeptin and 20 μM aprotinin. The cytosol fractions were obtained by collecting the supernatants after centrifuging the cells at 100,000×g for 45 minutes at 4. The pellets were resonicated in the homogenizing buffer with 1% Triton X-100, centrifuged again at 100,000×g for 45 minutes at 4, and the supernatants collected as membrane fractions. The extracts for cytosol and membrane fractions were denatured by heating at for 10 minutes in sampling buffer, and an aliquot containing 20 μg of total protein was subjected to a 10% SDS-polyacrylamide gel electrophoresis. […] Protein was detected with horseradish peroxidase (HRP) conjugated secondary antibody (BD Transduction Laboratories). […] The immunoreactive bands were detected by chemiluminescence (ECL) reagents (PerkinElmer Life Sciences, Inc).

ROCKII = ROCKII expression in electrically-stimulated left atria, Western blotting; format: cell-based, guinea-pig; details: Y27632 1-100 μM
Experimental: (§2) Protein extraction and Western blotting analysis. Briefly, after incubation with test agents in an organ bath, isolated beating atrium was frozen and pulverized to a fine powder at the temperature of liquid nitrogen. Atrium powders were then homogenized in protein extraction reagent (Pierce Biotechnology, Inc., Rockford, Ill.) by sonication. The samples were sonicated 10 sec three times and centrifuged at 13,000 rpm at 4° C. for 30 min. The protein concentrations of supernatants were determined by using bovine serum albumin as the standard. The cell extracts were then boiled in a ratio of 4:1 with sample buffer (Tris 100 mM, pH 6.8; glycerol 20%, Sodium dodecyl sulfate (SDS) 4% and bromophenol blue 0.2%). Electrophoresis was performed using 10% SDS-PAGE and transferred to nitrocellulose membranes (Millipore Corp., Billerica, Mass.). The membrane was blocked with Tris-buffered saline (TBS; 20 mM Tris and 137 mM NaCl, pH 7.6) containing 0.1% Tween 20 (TTBS) and 5% nonfat milk at room temperature for 1 h, washed with TTBS, and then incubated overnight at 4° C. in the appropriate primary antibody for PKARI, RhoA, ROCKII, p-CIP-17, CPI-17 and PKG1α1β. The membranes were washed in TTBS before being incubated with horseradish peroxidase-conjugated antibody against mouse, goat, or rabbit IgG for 1 hr. Membranes were then washed in TTBS and developed with the enhanced chemiluminescence for the detection of the specific antigen. The intensity of the bands was measured by densitometry. eNOS or phosphorylated eNOS were extracted from cell culture of neonatal myocytes, PA ring and aortic ring (2-3 mm) of rats and measured by Western blotting analysis.
(§3) PK, ROCKII and CIP-17 expression and pretreatment of beating left atrium. To examine whether KMUP-3 or KMUP-3 amine salt affects the protein expression in beating atrium, PKA, ROCKII, PKG and phosphorylated CIP-17 was determined by Western blotting, respectively. […]

PKA = PKA expression in electrically-stimulated left atria, Western blotting; format: cell-based, guinea-pig; details: Y27632 1-100 μM
Experimental: as §2, §3

[2] = Hemodynamic measurements in anesthetized rats (LVSP, dP/dt, MABP, HR); format: in vivo, Wistar rats; details: intravenous pretreatment at 1 mg/kg; KMUP-3 1 mg/kg, i.v.
Experimental: Hemodynamic measurements were carried out in male Wistar rats weighting 300˜350 g, anesthetized with pentobarbital sodium (40 mg kg^−1, i.p.). In brief, polyethylene tubing (PE50) was placed in the trachea to keep the airway patent, and rats continued to breathe spontaneously. Subsequently, rats were used to record hemodynamic and cardiovascular function. Vascular catheters (PE50) were placed in the femoral arteries to measure mean arterial blood pressure (MABP) and heart rate (HR). Changes of MABP and HR caused by KMUP-3 or KMUP-3 amine salt were recorded from the femoral artery with a pressure transducer (Gould, Model P50, U.S.A.), connected with a Pressure Processor Amplifier (Gould, Model 13-4615-52, U.S.A.). A femoral vein was used for intravenous administration of KMUP-3 or KMUP-3 amine salt. A specialized transducer tip catheter was placed in the right carotid artery and advanced into the left ventricle of the heart for measurement of left ventricular pressure (LVSP) or contractility; dP/dt at 50 mm Hg, an index of cardiac contractility, was derived from the left ventricular pressure trace; post-hoc vascular resistance was calculated as mean arterial blood pressure/peripheral cardiac output (MABP/PCO). Body temperature was monitored throughout the experiment and maintained between 37 and 37.5° C. by using a heating pad.
Each dose of active drugs was administered as a 20-min infusion in a series of escalating doses dissolved in a 5% dextrose water vehicle. […] KMUP-3 HCl or KMUP-3 amine salt were infused at 0.03, 0.05, and 0.075 μg/kg/20 min for the measurement of FABP, intraperitoneally injected at 0.03, 0.05 and 0.1 mg/kg for the measurement of MABP and HR and infused by intravenous injection for 2 min at 0.5, 1.0, 3.0 mg/kg dissolved in 5% dextrose water vehicle (2 ml) for the measurement of LV systolic pressure (LVSH), ABP, dP/dt, and HR. The primary hemodynamic variables were computed using commercial software and a signal processing workstation. Animals were randomly divided into one of six treatment or vehicle groups. After the completion of the surgical protocol, animals were allowed to stabilize for 1 h, and baseline data were collected at 5-min intervals for 30 min before the treatment.

[3] = tested on: isolated spontaneously beating right atrium; experiment: Spontaneously beating right atrium, organ bath; format: cell-based, guinea-pig
Experimental: as §1
Spontaneously beating right atrium was dissected from the heart and mounted in a 10 ml organ bath with one end fixed and the other end connected to a force displacement transducer (Grass, Model FT03). The frequency of contraction was measured on a separate channel by a tachometer (Coulbourn, Model S77-26) connected to a high-speed videograph (Coulbourn, AT L19-69). These experiments were carried out at 32.5° C. in Krebs solution. The atria strip was pre-stretched to a baseline tension of 0.5 g and equilibrated for 90 min in aerated (95% O2+5% CO2) Krebs solution before the experimental protocols were initiated. The atria were then allowed a 30-60 min washout period to re-stabilize. KMUP-3 or KMUP-3 amine salt (0.1, 1.0, 10, 100 μM) were then cumulatively added to the organ bath. […]

[4] = tested on: electrically-stimulated left atria; experiment: Electrically-stimulated beating left atrium, organ bath; format: cell-based, guinea-pig; details: 0.1~30 μM, electrical stimulation 1 Hz

## C[C@@H](N)[C@H]1CC[C@H](C(=O)Nc2ccncc2)CC1 [Y27632, reference compound]
[1]
  Effect of pretreatment on KMUP-3-induced positive inotropic activity: reduced
L-type Ca2+ channels
  Effect of combination on currents reduced by KMUP-3: restored
PKCα
  Effect of pretreatment on KMUP-3-induced translocation of PKCα: insignificantly prevented
ROCKII
  Effect on KMUP-3-induced expression of ROCK II: inhibited
PKA
  Effect on KMUP-3-induced expression of PKA: inhibited
[2]
  Effect of pretreatment on the effects (LVSP, dP/dt, MABP) induced by KMUP-3: inhibited

## CN1[C@@H]2CC[C@H]1C[C@@H](OC(=O)C(CO)c1ccccc1)C2 (stereo partly drawn) [atropine]
[3]; atropine 1 μM, 7-nitroindazole 100 μM
  Effect of pretreatment on the beating frequency decreased by KMUP-3: up-regulated

## O=C(c1ccc(F)cc1)C1CCN(CCn2c(=O)[nH]c3ccccc3c2=O)CC1 [ketanserin, reference compound]
[1]
  Effect of pretreatment on KMUP-3-induced positive inotropic activity: reduced
[2]
  Effect of pretreatment on the effects (LVSP, dP/dt, MABP) induced by KMUP-3: inhibited

## Cc1[nH]c(=O)c(C#N)cc1-c1ccncc1 [milrinone]
[4]
  Left atrium contractility: concentration-dependently increased
[3]; 0.1-30 μM
  Chronotropic effect (beating frequency): increased
  Inotropic effect (contraction force): increased

## CC(C)NCC(O)COc1cccc2ccccc12 (stereo not drawn) [propranolol, reference compound]
[1]
  Effect of pretreatment on KMUP-3-induced positive inotropic activity: reduced
[2]
  Effect of pretreatment on the effects (LVSP, dP/dt, MABP) induced by KMUP-3: inhibited

## C3 exoenzyme: C3 exoenzyme, used at 50 μg/mL as pretreatment
[1]
  Effect of pretreatment on KMUP-3-induced positive inotropic activity: reduced
